Measured values taken from patent US20260193294A1, “POLYPEPTIDE INHIBITOR, AND PREPARATION METHOD THEREFOR AND USE THEREOF” (SHANGHAI HANSOH BIOMEDICAL CO., LTD., priority 2022, published 2026).

What was measured:
[1] = Stability in plasma (human); assay type: in vitro ADME
Protocol: (§1) To study the stability of the compounds of the examples in the plasmas of mice, rats, dogs and humans.
(§2) Preparation of plasma: Animal or human whole blood was collected, then put into a test tube containing an anticoagulant, and centrifuged at 3500 rpm for 10 min, and the upper pale yellow plasma was collected; • working solution of 10 μM test compound: a stock solution was prepared with DMSO, and the working solution was prepared with 100 mM phosphate buffer; • working solution of 10 μM positive control: • procaine: 2.36 mg of procaine was weighed and diluted into a 10 mM stock solution with 1 mL of DMSO. 10 μL of the 10 mM stock solution was pipetted into 1 mL of 100 mM phosphate buffer, such that the final concentration was 100 μM; and • enalapril: 4.93 mg of enalapril was weighed and diluted into a 10 mM stock solution with 1 mL of DMSO; and 10 μL of the 10 mM stock solution was pipetted into 1 mL of 100 mM phosphate buffer, such that the final concentration was 100 μM.
(§3) In a 96-well plate, 285 μL of plasma and 15 μL of 10 μM compound (test compound, and positive control) were successively added and incubated at 37° C.
(§4) 40 μL was taken at 0, 15, 30, 60, 90, and 120 min (sampling points could be fine-tuned), respectively, and 160 μL of an acetonitrile stop solution containing an internal standard was added.
(§5) After centrifugation (3500 rpm, 10 min), 50 μL of the supernatant was taken, diluted by adding 50 μL of DDH2O, and then injected for LC-MS/MS.
(§6) • Instrument: Shimadzu LC-20 AD • Chromatographic column: Phenomenex Gemiu® C18 (50*4.6 mm, 5 μm particle size) • Mobile phase: A: acetonitrile, B: 0.1% formic acid solution • Elution gradient: […]: 5% A→95% A, 2.0-2.1 min: […] • Flow rate: 0.8 mL/min • Run time: 5.0 min • Injection volume: 5 μL
(§7) • Instrument: API4000 liquid chromatography mass spectrometer, AB, US • Ion source: electrospray ionization source (ESI) • Drying gas: N2, temperature 500° C. • Electrospray voltage: 5500V • Detection mode: positive ion detection • Scan mode: multi reaction monitoring (MRM) mode • Scan time: 0.1 s
(§8) All calculations were carried out using Microsoft Excel. The peak area ratio was determined by an extracted ion chromatogram.
(§9) The residual percentage of the compound at each time point was calculated by the following equation: Residual percentage at t hours (%)=peak area ratio at t hours/peak area ratio at 0 hour×100%, in which the peak area ratio at t hr was the peak area ratio of the […] at t min; and • the slope value k was determined by linear regression on the natural logarithm of the curve of the residual percentage of the parent drug versus the incubation time.
(§10) In vitro half-life (in vitro t1/2) was determined by the slope value: […]

[2] = Pharmacokinetic determination in beagle dogs (IV); settings: male, dog, plasma, 0.2 mg/kg
Protocol: Beagle dogs were used as test animals to study the pharmacokinetic behavior of the compounds of the examples in the rats (plasma) after IV administration.
3 beagle dogs/group, male, from Yizheng Anlimao Biotechnology Co., Ltd.
The compounds of the examples were weighed and dissolved in this solution, vortexed, ultrasonicated for 5 min, and filtered through a 0.22 μm filter membrane to obtain colorless clear solutions with a concentration of 0.1 mg/mL.
3 beagle dogs/group, male were fasted overnight and then respectively administered IV at a dose of 0.2 mg/kg and a volume of 2 mL/kg.
1) Acetonitrile (200 μL) was added to the plasma sample (50 L) for precipitation, and the mixture was mixed and centrifuged at 4500 rpm for 15 min.
(§11) 2) The treated supernatant solution was taken and subjected to LC/MS/MS to analyze the concentrations of the test compounds. LC/MS/MS analysis instrument: AB Sciex Triple Quad 6500+.
Premier Peptide CSH C18 130A 1.7 μm 2.1*100 mm Column, mobile phase: liquid A: 5% acetonitrile aqueous solution (0.1% formic acid), and liquid B: an aqueous solution of 95% acetonitrile (0.1% formic acid) • Flow rate: 0.6 mL/min • Elution time: 0-2.0 min, the eluent was as follows:
(§12) The main pharmacokinetic parameters were calculated using WinNonlin 8.1.

Solubility in PBS = assay type: physicochemical; settings: PBS pH 7.4, room temperature
Protocol: To study the solubility of the compounds in PBS.
About 2 mg of the compound was weighed, an appropriate amount of a PBS solution was added, and the mixture was dissolved clear by ultrasonication for 10 seconds. No precipitation was found after standing at room temperature overnight.

in vivo = settings: male, Sprague-Dawley (SD), rat, iv, 1 mg/kg
Protocol: SD rats were used as test animals to study the pharmacokinetic behavior of the compounds of the examples in the rats (plasma) after oral or IV administration.
Preparation of intravenous drug: PBS
The compounds of the examples were weighed and dissolved in this solution, vortexed, ultrasonicated for 5 min, and filtered through a 0.22 μm filter membrane to obtain colorless clear solutions with a concentration of 0.2 mg/mL.
3 SD rats/group, male were fasted overnight and then respectively administered IV at a dose of 1 mg/kg and a volume of 5 mL/kg.
• Before administration and at 0.083 h, 0.25 h, 0.5 h, 1.0 h, 2.0 h, 4.0 h, 6.0 h, 8.0 h, and 24.0 h after administration (IV), 0.2 mL of blood was collected from the jugular vein, placed in an EDTA-2K test tube, and centrifuged at 6000 rpm for 6 min at 4° C. to separate plasma, which was stored at −20° C.; and the rats were fed 4 h after administration.
1) Acetonitrile (200 μL) was added to the plasma sample (50 μL) for precipitation, and the mixture was mixed and centrifuged at 4500 rpm for 15 min.
as §11
• Liquid phase conditions: Shimadzu LC-30AD pump • Chromatographic column: HALO 90A PFP 2.7 μm 2.1×30 mm, mobile phase: liquid A: 5% acetonitrile aqueous solution (0.1% formic acid), and liquid B: an aqueous solution of 95% acetonitrile (0.1% formic acid) • Flow rate: 0.6 mL/min • Elution time: 0-2.0 min, the eluent was as follows:
as §12

in vitro = in vitro ADME; settings: 37° C.; for half-life at 0.5 μM: in vitro half-life, read-out: t1/2 (converted); for remaining at 4 h, 0.5 µM: read-out: Residual ratio % at 4 h
Protocol: as §1, §2, §3, §4, §5, §6, §7, §8, §9, §10

[3] = test system: IL23-induced rat otitis model; experiment: In vivo pharmacodynamics in IL23-induced rat otitis model (ear thickening); parameters: species or system SD rats; settings: 10 mg/kg, gavage, QD
Text: To evaluate the in vivo efficacy of the compounds in an IL23-induced rat otitis model.
SD rats, 6-8 weeks old, male, purchased from Jiangsu GemPharmatech Co., Ltd.
• a. […]

CC(=O)NCCCC[C@@H]1NC(=O)[C@H](Cc2c[nH]c3c(C)cccc23)NC(=O)[C@H]([C@@H](C)O)NC(=O)[C@H](CC(N)=O)NC(=O)[C@@H](NC(C)=O)C(C)(C)SSC(C)(C)[C@@H](C(=O)N[C@@H](Cc2ccc(OCCN)cc2)C(=O)N[C@@H](Cc2ccc3ccccc3c2)C(=O)NC2(C(=O)N[C@@H](CCC(=O)O)C(=O)N[C@@H](CC(N)=O)C(=O)N[C@@H](Cc3cccnc3)C(=O)N(C)CCNC(=O)CCOCCOCC[N+](C)(C)CCNC(=O)COCCOCCNC(=O)COCCOCCNC(=O)CC[C@H](NC(=O)CCCCCCCCCCCCCCC(=O)O)C(=O)O)CCC(F)(F)CC2)NC1=O [Example 1-16-1]
remaining at 4 h, 0.5 µM ([1]; Human plasma, 37° C., read-out: Residual ratio % at 4 h): 94.8% | half-life at 0.5 μM ([1]; human, plasma): 41.3 h | AUC(0-inf) [2]: 76400 ng·h/mL | AUC(0-t) [2]: 68800 ng·h/mL | C0 [2]: 2750 ng/mL | MRT [2]: 66.9 h | clearance [2]: 2.4 mL/h/kg | solubility (Solubility in PBS): 39.6 to 59.4 mg/mL | half-life (in vivo): 5 h | half-life at 0.5 μM (in vitro; Dog plasma): 3.15 days | remaining at 4 h, 0.5 µM (in vitro; Dog plasma): 90.5% | half-life at 0.5 μM (in vitro; Rat plasma): 25.1 days | remaining at 4 h, 0.5 µM (in vitro; Rat plasma): 104% | half-life at 0.5 μM (in vitro; mouse, Mice plasma): 83.6 days | remaining at 4 h, 0.5 µM (in vitro; mouse, Mice plasma): 104% | Inhibition rate on Day 4 (ear thickening) [3]: 70.77%
